Structures are written as SMILES.

One series has as its system Psoroptes ovis. As to the kind of experiment: Test with Psoroptes ovis. The settings on record: 10 ppm active compound, 24 hours, read-out: destruction. The format is in vivo. The method, then: 35 parts by weight of ethylene glycol monomethyl ether
35 parts by weight of nonylphenol polyglycol ether
To produce a suitable preparation of active compound, three parts by weight of active compound are mixed with seven parts by weight of the abovementioned solvent mixture and the concentrate thus obtained is diluted with water to the desired concentration.
About 10-25 Psoroptes ovis are introduced into 1 ml of the active compound preparation to be tested, this having been pipetted into tablet nests of a deep-drawn package. After 24 hours, the degree of destruction is determined.

Series [1] deals with Diabrotica balteata larvae. As to the kind of experiment: Critical concentration test/soil insects: Diabrotica balteata larvae in the soil. The format is in vivo. Conditions: 168 h, 2.5 ppm active compound in soil, after a further 7 days, 100% = all test insects killed, read-out: degree of effectiveness. The method, then: (§1) Critical concentration test/soil insects
Test insect: Diabrotica balteata larvae in the soil
(§2) Solvent: 3 parts by weight of acetone
(§3) Emulsifier: 1 part by weight of alkylaryl polyglycol ether.
(§4) To produce a suitable preparation of active compound, 1 part by weight of active compound is mixed with the stated amount of solvent, the stated amount of emulsifier is added and the concentrate is diluted with water to the desired concentration.
The preparation of active compound is intimately mixed with soil. The concentration of the active compound in the preparation is of practically no importance, only the amount by weight of active compound per unit volume of soil, which is given in ppm (=mg/liter) being decisive. The soil is filled into 0.5 liter pots and these are left to stand at 20° C.
Immediately after setting up the test, 6 pregerminated grains of corn are placed in each pot. After 2 days, the corresponding test insects are introduced into the treated soil. After a further 7 days the degree of effectiveness of the active compound is determined in % by counting the dead and live test insects. The degree of effectiveness is 100% if all the test insects have been killed and is 0% if just as many test insects are still alive as in the case of the untreated control.

Another series relates to Phorbia antiqua maggots. Put plainly: Critical concentration test/soil insects: Phorbia antiqua maggots (in the soil). The format is in vivo. The settings on record: 2.5 ppm active compound in soil; 2 to 7 days; 100% = all test insects killed. The procedure: as §1
Test insect: Phorbia antiqua maggots (in the soil)
as §2
Emulsifier: 1 part by weight alkylaryl polyglycol ether.
as §4
The preparation of active compound is intimately mixed with soil. The concentration of the active compound in the preparation is of practically no importance, only the amount by weight of active compound per unit volume of soil, which is given in ppm (=mg/liter) being decisive. The soil is filled into pots and the pots are left to stand at room temperature.
After 24 hours, the test insects are introduced into the treated soil, and after a further 2 to 7 days the degree of effectiveness of the active compound is determined in % by counting the dead and live test insects. The degree of effeciveness is 100% if all the test insects have been killed and is 0% if just as many test insects are still alive as in the case of the untreated control.

Series [2] can be described thus: Toxicity to warm-blooded animals, LD50 on rats (oral). The settings on record: rat, in vivo, oral (stomach tube), dissolved in polyethylene glycol LUTROL. The method, then:
Toxicity to warm-blooded animals, LD50 values on rats (oral)
The values were determined in the customary manner. The active compounds were dissolved in polyethylene glycol LUTROL (trademark of BASF AG, Ludwigshafen, Federal Republic of Germany) and the solution was administered to rats with a stomach tube.

The next series has as its system Meloidogyne incognita. As to the kind of experiment: Critical concentration test/nematodes: Meloidogyne incognita. The settings on record: 20 ppm active compound in soil; lettuce, four weeks, 27° C.; 100% = infestation completely avoided. It counts as in vivo. The procedure:
Critical concentraion test/nematodes
Test nematode: Meloidogyne incognita
as §2, §3, §4
The preparation of active compound is intimately mixed with soil which is heavily infested with the test nematodes. The concentration of the active compound in the preparation is of practically no importance, only the amount of active compound per unit volume of soil, which is given in ppm, being decisive. The treated soil is filled into pots, lettuce is sown in and the pots are kept at a greenhouse temperature of 27° C.
After four weeks, the lettuce roots are examined for infestation with nematodes (root galls), and the degree of effectiveness of the active compound is determined in %. The degree of effectiveness is 100% if infestation is completely avoided and is 0% if the infestation is just as high as in the case of the control plants in untreated soil which has been infested in the same manner.

In series [3] the test system is Lucilia cuprina OP res. larvae. As to the kind of experiment: Test with Lucilia cuprina OP res. larvae. The settings on record: 10 ppm active compound, 24 hours, read-out: destruction. The format is in vivo. The method, then: Test with Lucilia cuprina OP res. larvae
35 parts by weight of ethylene glycol monoethyl ether
35 parts by weight of nonylphenol polyglycol ether.
To produce a suitable preparation of active compound, three parts by weight of active compound are mixed with seven parts by weight of the abovementioned solvent mixture and the concentrate thus obtained is diluted with water to the particular desired concentration.
About 20 Lucilia cuprina res. larvae are introduced into a test tube which contains approx. 1 cm^2 of horse muscle and 0.5 ml of the preparation of active compound. After 24 hours, the degree of destruction is determined.

`CCOP(=S)(OCC(F)(F)C(F)F)Oc1cnc(C(C)(C)C)nc1` (stereo not shown) [Example 2]: the mortality at 10 ppm (in the series on Psoroptes ovis; in series [3]) was 100% in each case. Further, the mortality at 2.5 ppm in series [1] amounted to 100%. Further, the degree of effectiveness with Phorbia antiqua maggots and in the series on Meloidogyne incognita was 100% in each case. This molecule returned an LD50 in series [2] of 50 mg/kg.
Turning to `CCOP(=S)(OCC(F)(F)F)Oc1cnc(C(C)(C)C)nc1` (stereo not shown) [Example 1, O-ethyl O-(2,2,2-trifluoroethyl) O-(2-tert.-butyl-pyrimidin-5-yl)thionophosphate], the mortality at 2.5 ppm in series [1] was 100%. For the same molecule, the degree of effectiveness in the series on Phorbia antiqua maggots and with Meloidogyne incognita was 95% each time. Further, the LD50 in series [2] lay in the range of 100 to 250 mg/kg.
Take `CCOP(=S)(OCC)Oc1cnc(C(C)(C)C)nc1` [Comparison compound (A), reference compound]: in series [1], the mortality at 2.5 ppm is 100%. In addition, the degree of effectiveness with Phorbia antiqua maggots and with Meloidogyne incognita was 100% in each case. The same molecule returned a median lethal dose (LD50) in series [2] of 1 to 2.5 mg/kg.
On to `CCCOP(=S)(OCC)Oc1cnc(C(C)C)nc1` (stereo not shown) [known compound (B), reference compound], for which the degree of effectiveness in the series with Phorbia antiqua maggots turned out to be 100%; with Meloidogyne incognita, 95%.

The term LD50 denotes the dose expected to kill half of the subjects tested. The low end stands for greater toxicity, the high end for lower toxicity.
